Experimental data taken from patent publication US10434094B2, “Combination of checkpoint kinase 1 inhibitors and wee 1 kinase inhibitors” (Array BioPharma Inc., priority 2010, dated 2019).
Read-outs that look alike come from different tables or passages of the source.

Columns and labels:
HEL92.1.7 cells = test: cellular viability by CellTiter Blue assay, single agents and matrix combination; type: cell-based; conditions: Homo sapiens, HEL 92.1.7, 72 h, single agent, three days of treatment
Protocol: HEL92.1.7 cells were plated in 96-well plates and then treated with Compound 2 or MK-1775 as single agents. After three days of treatment, cellular viability was assessed by CellTiter Blue assay (Promega). Data represent the mean±S.E. (n=5 for Compound 2, n=2 for MK-1775). […] HEL92.1.7 cells were plated in 96-well plates and then treated with combinations of Compound 2 and MK-1775 in matrix fashion at the indicated concentrations. Three days after treatment cellular viability was assessed by CellTiter Blue assay. […] Data represent the average of two independent experiments (triplicate plates were averaged for each individual experiment).

[1] = cited from earlier work

Compound | IC50 (HEL92.1.7 cells) | MTD ([1]; multiple dose (5 BID doses) in combination with carboplatin (AUC 5), trial ongoing) | MTD ([1]; multiple dose (5 BID doses) in combination with cisplatin (75 mg/m^2), trial ongoing) | MTD ([1]; multiple dose in combination with gemcitabine (1000 mg/m^2), BID day 1) | MTD ([1]; multiple dose in combination with gemcitabine (1000 mg/m^2), BID day 2) | MTD ([1]; multiple dose in combination with gemcitabine (1000 mg/m^2), QD day 3) | MTD ([1]; single dose in combination with carboplatin (AUC 5), patients with advanced solid tumors) | MTD ([1]; single dose in combination with cisplatin (75 mg/m^2), patients with advanced solid tumors) | MTD ([1]; single dose in combination with gemcitabine (1000 mg/m^2), patients with advanced solid tumors)
C=CCn1c(=O)c2cnc(Nc3ccc(N4CCN(C)CC4)cc3)nc2n1-c1cccc(C(C)(C)O)n1 [MK-1775] | 103 nM | 225 mg | 125 mg | 50 mg | 25 mg | 25 mg | 325 mg | 200 mg | 200 mg
CC(C)C(=O)Nc1c[nH]c2ncc(Br)c(N3CCC[C@@H](N)C3)c12 [Compound 2, (R)—N-(4-(3-aminopiperidin-1-yl)-5-bromo-1H-pyrrolo [2,3-b]pyridin-3-yl)isobutyramide] | 30 nM |  |  |  |  |  |  |  | 
